Results: patent publication US20220380310A1, “P2X7R ANTAGONISTS” (priority 2019, published 2022)
Where a name gives a salt, the structure may show the parent alone.

How the values were obtained:
P2X7R = target: T1, P2X7R (Homo sapiens, UniProt Q99572); assay: Yo-Pro-1 uptake assay (Yo-Pro-1 Assay) in HEK-293 cells transiently transfected with P2X7R; assay type: cell-based; conditions: for remaining activity at 5 µM: HEK293, read-out: Percentage of activity remains in the presence of the compound at 5 μM, P2X7R (Yo-Pro-1 Assay); for IC50: HEK-293 cells transiently transfected with P2X7R, 30 μM bzATP as stimulus, readings 1 hour after stimulation, estimated from dose-response curves
T1 construct: expressed in transfected cells; host or cells: HEK-293
T1 sequence (Q99572 1-595): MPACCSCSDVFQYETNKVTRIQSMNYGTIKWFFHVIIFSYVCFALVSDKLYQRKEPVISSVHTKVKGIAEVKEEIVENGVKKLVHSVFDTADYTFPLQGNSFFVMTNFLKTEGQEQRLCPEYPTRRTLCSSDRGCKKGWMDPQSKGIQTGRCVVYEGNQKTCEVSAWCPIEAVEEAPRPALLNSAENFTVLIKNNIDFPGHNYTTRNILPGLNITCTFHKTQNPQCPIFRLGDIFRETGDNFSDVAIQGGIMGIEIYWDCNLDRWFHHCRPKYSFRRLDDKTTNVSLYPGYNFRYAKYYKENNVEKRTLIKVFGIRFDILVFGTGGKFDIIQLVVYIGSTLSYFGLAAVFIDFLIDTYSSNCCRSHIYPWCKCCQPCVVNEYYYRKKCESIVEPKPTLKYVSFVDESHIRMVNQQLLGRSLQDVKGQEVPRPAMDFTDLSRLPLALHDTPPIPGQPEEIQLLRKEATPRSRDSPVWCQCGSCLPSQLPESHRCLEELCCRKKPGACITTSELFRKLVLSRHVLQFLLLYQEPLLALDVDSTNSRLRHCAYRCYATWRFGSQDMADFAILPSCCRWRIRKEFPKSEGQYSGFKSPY
Text: (§1) Yo-Pro-1 Iodide (Cat. No Y3603 from Fisher Scientific) is a fluorescent DNA-binding dye with a MW of 629 Da. This method is based upon the Yo-Pro-1 entrance to cells through the dilated or “large pore form” of P2X7R and its binding to intracellular DNA whereby it increases its fluorescence intensity (J. Pharmacol. Exp. Ther. 308, 1053-1061). The dye has an absorption spectrum compatible with excitation at 488 nm by argon laser sources and its emission wavelength is in the range of 515-575 nm. This Yo-Pro-1 uptake was measured in HEK-293 cells transiently transfected with P2X7R (J. Biol. Chem. 290, 7930-7942). In Brief, HEK-293 cells were seeded in growth medium at approximately 20,000 cells/well in a 96-well plate on day 1. Transfection was performed on day 2 using Lipofectamine 2000 with the P2X7R DNA plasmid at the concentration of 1.7 μg/ml. The transfection solution was replaced with the growth medium 4 hours later. Fluorescent assays were conducted on day 4. On day 4, the medium was removed, the cells were washed with phosphate buffered saline (PBS) (Cat. No. MT21040CV from Fisher Scientific). Then, 25 μl of PBS were first loaded to each well followed by 25 μl of various test compounds. The third 25 μl of solution contained a mixture of Yo-Pro-1 and stimulus bzATP (2′(3′)-O-(4-Benzoylbenzoyl)adenosine-5′-triphosphate tri(triethylammonium) salt). The final concentration of Yo-Pro-1 was 2.5 μM and of bzATP 30 μM. Fluorescence increases were measured every 30 minutes in a microplate device with excitation at 475 nm and emission wavelength in the range of 500-550 nm. PPADS (Pyridoxalphosphate-6-azophenyl-2′,4′-disulfonic acid tetrasodium) was used as the positive control. The wells with no test compounds added nor bzATP and only containing PBS and Yo-Pro-1 were served as the negative control (N Contl). The positive control (P Contl) wells were the same as N Contl but contained the stimulus, bzATP in this case.
(§2) Data used for analysis were from microplate readings 1 hour after bzATP stimulation. The result of each well was first normalized by its corresponding base microplate reading. The base microplate reading was the first reading right after all components were added. Then, the negative control signal was subtracted from. In the negative control, the test compound and the stimulus were replaced by PBS. An average of six highest values of the plate (AVG) were considered as 100% and the value of each well was divided by AVG and presented as the relative values in percentages.
For comparison of the antagonistic effectiveness of the compounds of this invention among P2X receptors, assays were conducted at 5 μM. Among 55 compounds tested, 29 can reduce the P2X7R activity to […] of the normal activity (Table 2).

[1] = target: T2, Human P2X2 receptor (P2X2R) (Homo sapiens, UniProt Q9UBL9); assay: Yo-Pro-1 uptake assay, P2X2R transfected HEK-293 cells; assay type: cell-based; conditions: 5 μM ATP stimulus; for remaining activity at 5 µM: HEK293, compound at 5 μM, read-out: Percentage of activity remains in the presence of the compound at 5 μM, P2X2R (Yo-Pro-1 Assay)
T2 construct: expressed in transfected cells; host or cells: HEK-293
T2 sequence (Q9UBL9 1-471): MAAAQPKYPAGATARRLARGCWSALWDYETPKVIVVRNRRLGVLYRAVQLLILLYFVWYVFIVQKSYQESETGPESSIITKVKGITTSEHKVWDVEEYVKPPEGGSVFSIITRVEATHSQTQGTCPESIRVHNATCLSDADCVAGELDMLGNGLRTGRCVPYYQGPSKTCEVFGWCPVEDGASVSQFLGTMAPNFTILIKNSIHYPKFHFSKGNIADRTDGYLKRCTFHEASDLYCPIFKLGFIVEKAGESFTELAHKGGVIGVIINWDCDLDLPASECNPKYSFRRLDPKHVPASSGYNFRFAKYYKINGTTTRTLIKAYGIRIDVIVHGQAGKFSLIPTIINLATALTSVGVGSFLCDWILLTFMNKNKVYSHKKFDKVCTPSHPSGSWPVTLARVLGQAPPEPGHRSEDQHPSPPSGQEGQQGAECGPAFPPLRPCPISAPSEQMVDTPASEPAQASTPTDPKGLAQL
Text: as §1, §2
Human P2X2 receptor (P2X2R) construct (J. Biol. Chem. 290, 7930-7942) was transiently transfected to HEK-293 cells and the Yo-Pro-1 assay was performed as described above. When 5 μM ATP was used as the stimulus, the elevation of receptor mediated activity can be seen in 10 minutes.

[2] = compound at 5 μM, 30 μM bzATP stimulus, reading 1 hour after stimulation, transfected HEK-293 cells

SMILES | remaining activity at 5 µM (P2X7R; [2]) | IC50 (P2X7R) | remaining activity at 5 µM [1] | Percentage of activity remains in the presence of the compound at 5 μM, P2X7R (Yo-Pro-1 Assay) (P2X7R; [2]) | Percentage of activity remains in the presence of the compound at 5 μM, P2X2R (Yo-Pro-1 Assay) [1]
O=C(NCCc1ccccc1)C1CCN(S(=O)(=O)c2ccc(N3CCCC3)cc2)CC1 [#21] | 36.2% | 0.9 µM | 50.8% | – | –
COc1ccc(S(=O)(=O)N2CCCC(NC(=O)CCc3ccccc3)C2)cc1 (centres unmarked) [#2] | 15.8% | 2.8 µM | 54.6% | – | –
O=C(CCc1ccccc1)NC1CCCN(S(=O)(=O)c2ccc(-n3cc(Br)cn3)cc2)C1 (centres unmarked) [#9] | 10.2% | 16 µM | 76.9% | – | –
CCOc1ccc(S(=O)(=O)N2CCCC(NC(=O)CCc3ccccc3)C2)cc1 (centres unmarked) [#37] | 82.7% | 28.5 µM | 58.1% | – | –
O=C(CCc1ccccc1)N1CCN(S(=O)(=O)c2ccc(N3CCCCC3)cc2)CC1 [#34] | 4.8% | 2.7 µM | 72.4% | – | –
CCCCNc1ccc(S(=O)(=O)N2CCCC(NC(=O)CCc3ccccc3)C2)cc1 (centres unmarked) [#15] | -12.2% | 1 µM | 85% | – | –
CC(C)(C)OC(=O)N1CCC(C2CCN(c3ccc(S(=O)(=O)N4CCCC(NC(=O)CCc5ccccc5)C4)cc3)CC2)CC1 (centres unmarked) [#41] | 18.3% | 1.8 µM | 61.4% | – | –
O=C(NCCc1ccccc1)C1CCN(S(=O)(=O)c2ccc(N3CCCCC3)cc2)CC1 [#20] | 7% | 1 µM | 61.5% | – | –
Cc1nc(N=Nc2ccc(S(=O)(=O)[O-])cc2S(=O)(=O)[O-])c(COP(=O)([O-])[O-])c(C=O)c1O.[Na+].[Na+].[Na+].[Na+] [PPADS, Pyridoxalphosphate-6-azophenyl-2′,4′-disulfonic acid tetrasodium, reference compound] | – | – | – | 0.7% | 29.6%
NC(=O)c1cc(Br)cc(N2CCOCC2)c1 [#28] | 75.2% | 29 µM | 77.3% | – | –
O=C(CCc1ccccc1)N1CCNCC1 [#29, hydrochloride] | 88.1% | 10.1 µM | 89.4% | – | –
O=C(CCc1ccccc1)N1CCN(S(=O)(=O)c2ccc(N3CCCC3)cc2)CC1 [#35] | 23.6% | 3.3 µM | 70.6% | – | –
O=C(CCc1ccccc1)N1CCN(S(=O)(=O)c2ccc(F)cc2)CC1 [#30] | 52.2% | 1490 µM | 74.9% | – | –
O=S(=O)(c1ccccc1)C1CN(S(=O)(=O)c2ccc(N3CCOCC3)cc2)C1 [#11] | 80.9% | 9.9 µM | 44% | – | –
CC(C)(C)OC(=O)N1CCN(c2ccc(S(=O)(=O)N3CCC(C(=O)NCCc4ccccc4)CC3)cc2)CC1 [#22] | 43% | 12.6 µM | 72% | – | –
CN(C)c1ccc(S(=O)(=O)N2CCCC(NC(=O)CCc3ccccc3)C2)cc1 (centres unmarked) [#14] | -6.1% | 1.4 µM | 54.3% | – | –
O=C1CCC(N2Cc3c(NC(=O)CCc4ccccc4)cccc3C2=O)C(=O)N1 (centres unmarked) [#16] | 26% | 3.6 µM | 83.8% | – | –
O=C(CCc1ccccc1)N1CCN(S(=O)(=O)c2ccc(NC3CCCCC3)cc2)CC1 [#33] | -8.5% | 0.4 µM | 60.9% | – | –

Now from value to compound, other results behind:

remaining activity at 5 µM (P2X7R; [2]) | IC50 (P2X7R) | remaining activity at 5 µM [1] | SMILES | Percentage of activity remains in the presence of the compound at 5 μM, P2X7R (Yo-Pro-1 Assay) (P2X7R; [2]) | Percentage of activity remains in the presence of the compound at 5 μM, P2X2R (Yo-Pro-1 Assay) [1]
-5.1% | 0.1 µM | 61.4% | CC1CCCN(c2ccc(S(=O)(=O)N3CCCC(NC(=O)CCc4ccccc4)C3)cc2)C1 (centres unmarked) [#44] | – | –
-0.5% | 4.6 µM | 70.9% | NS(=O)(=O)c1ccc(N2CCCC(NC(=O)CCc3ccccc3)C2)cc1 (centres unmarked) [#53] | – | –
41.5% | 31.2 µM | 52.7% | CN1CCN(c2ccc(S(=O)(=O)N3CCCC(NC(=O)CCc4ccccc4)C3)cc2)CC1 (centres unmarked) [#18] | – | –
11.1% | 3.9 µM | 66.3% | CC(C)OC1CCN(c2ccc(S(=O)(=O)N3CCCC(NC(=O)CCc4ccccc4)C3)cc2)CC1 (centres unmarked) [#39] | – | –
20% | 3.9 µM | 44% | CS(=O)(=O)c1ccc(N2CCCC(NC(=O)CCc3ccccc3)C2)cc1 (centres unmarked) [#1] | – | –
4.6% | 2.9 µM | 85.4% | O=C(CCc1ccccc1)NC1CCCN(c2ccc(S(=O)(=O)N3CCCC3)cc2)C1 (centres unmarked) [#55] | – | –
1.4% | 2.6 µM | 55.9% | CC(C)N(C(C)C)S(=O)(=O)c1ccc(N2CCCC(NC(=O)CCc3ccccc3)C2)cc1 (centres unmarked) [#49] | – | –
-8.6% | 3.8 µM | 39.1% | O=C(CCc1ccccc1)NC1CCCN(S(=O)(=O)c2ccc(N3CCC(F)(F)CC3)cc2)C1 (centres unmarked) [#46] | – | –
9.1% | 0.8 µM | 69.1% | CC1CCN(c2ccc(S(=O)(=O)N3CCCC(NC(=O)CCc4ccccc4)C3)cc2)CC1 (centres unmarked) [#40] | – | –
0.8% | 1.6 µM | 48.9% | O=C(CCc1ccccc1)NC1CCCN(S(=O)(=O)c2ccc(N3CCCC3)cc2)C1 (centres unmarked) [#13] | – | –
36.9% | 2.2 µM | 45.8% | O=C(CCc1ccccc1)NC1CCCN(c2ccc(S(=O)(=O)NCc3ccco3)cc2)C1 (centres unmarked) [#52] | – | –
-1.7% | 0.9 µM | 59.2% | O=C(CCc1ccccc1)NC1CCCN(S(=O)(=O)c2ccc(N3CCC(C(F)(F)F)CC3)cc2)C1 (centres unmarked) [#42] | – | –
-1% | 3.1 µM | 46.6% | O=C(CCc1ccccc1)NC1CCCN(c2ccc(S(=O)(=O)NC3CCCCC3)cc2)C1 (centres unmarked) [#51] | – | –
